From ChEMBL document CHEMBL1201862, “PubChem BioAssay data set” (2004)
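Protocol summary: plate cells (96-well), add compound at 5 concentrations, incubate 48 h, interpolate endpoints linearly. GI50 marks 50% less growth.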 Activity calls are given as the source filed them. Rule as the data show it: active = GI50 up to about 1.1 µM and inactive = higher.

How the values were obtained:
Assay in all cases: NCI-60 cell line screen, 48 h
786-0 = tested on: 786-0
A498 = tested on: A498
A549 = tested on: A549
ACHN = tested on: ACHN
BT-549 = tested on: BT-549
CAKI-1 = tested on: CAKI-1
CCRF-CEM = tested on: CCRF-CEM
COLO 205 = tested on: COLO 205
DU-145 = tested on: DU-145
EKVX = tested on: EKVX
HCC 2998 = tested on: HCC 2998
HCT-116 = tested on: HCT-116
HCT-15 = tested on: HCT-15
HL-60 = tested on: HL-60
HOP-62 = tested on: HOP-62
HOP-92 = tested on: HOP-92
HT-29 = tested on: HT-29
Hs-578T = tested on: Hs-578T
IGROV-1 = tested on: IGROV-1
K562 = tested on: K562
KM12 = tested on: KM12
LOX IMVI = tested on: LOX IMVI
M14 = tested on: M14
MCF7 = tested on: MCF7
MDA-MB-231 = tested on: MDA-MB-231
MDA-MB-435 = tested on: MDA-MB-435
MDA-N = tested on: MDA-N
MOLT-4 = tested on: MOLT-4
Malme-3M = tested on: Malme-3M
NCI-H226 = tested on: NCI-H226
NCI-H23 = tested on: NCI-H23
NCI-H460 = tested on: NCI-H460
NCI-H522 = tested on: NCI-H522
NCI/ADR-RES = tested on: NCI/ADR-RES
OVCAR-3 = tested on: OVCAR-3
OVCAR-4 = tested on: OVCAR-4
OVCAR-5 = tested on: OVCAR-5
OVCAR-8 = tested on: OVCAR-8
PC-3 = tested on: PC-3
RPMI-8226 = tested on: RPMI-8226
RXF 393 = tested on: RXF 393
SF-268 = tested on: SF-268
SF-295 = tested on: SF-295
SF-539 = tested on: SF-539
SK-MEL-28 = tested on: SK-MEL-28
SK-MEL-2 = tested on: SK-MEL-2
SK-MEL-5 = tested on: SK-MEL-5
SK-OV-3 = tested on: SK-OV-3
SN12C = tested on: SN12C
SNB-19 = tested on: SNB-19
SNB-75 = tested on: SNB-75
SR = tested on: SR
SW-620 = tested on: SW-620
T47D = tested on: T47D
TK-10 = tested on: TK-10
U-251 = tested on: U-251
UACC-257 = tested on: UACC-257
UACC-62 = tested on: UACC-62
UO-31 = tested on: UO-31

SMILES: CCC(CCCC[C@H]1CC[C@@H]2CC(=O)C[C@H]12)OC (stereo partly specified)
- GI50 (786-0): > 100 µM (inactive)
- GI50 (A498): > 100 µM (inactive)
- GI50 (A549): > 100 µM (inactive)
- GI50 (ACHN): > 100 µM (inactive)
- GI50 (BT-549): 50.7 µM (inactive)
- GI50 (CAKI-1): > 100 µM (inactive)
- GI50 (CCRF-CEM): > 100 µM (inactive)
- GI50 (COLO 205): > 100 µM (inactive)
- GI50 (DU-145): > 100 µM (inactive)
- GI50 (EKVX): 59 µM (inactive)
- GI50 (HCC 2998): > 100 µM (inactive)
- GI50 (HCT-116): 76 µM (inactive)
- GI50 (HCT-15): > 100 µM
- GI50 (HL-60): 39.5 µM (inactive)
- GI50 (HOP-62): > 100 µM (inactive)
- GI50 (HOP-92): > 100 µM (inactive)
- GI50 (HT-29): > 100 µM (inactive)
- GI50 (Hs-578T): > 100 µM (inactive)
- GI50 (IGROV-1): > 100 µM (inactive)
- GI50 (K562): 25.6 µM (inactive)
- GI50 (KM12): > 100 µM (inactive)
- GI50 (LOX IMVI): > 100 µM (inactive)
- GI50 (M14): > 100 µM (inactive)
- GI50 (MCF7): > 100 µM (inactive)
- GI50 (MDA-MB-231): > 100 µM (inactive)
- GI50 (MDA-MB-435): > 100 µM (inactive)
- GI50 (MDA-N): > 100 µM (inactive)
- GI50 (MOLT-4): > 100 µM (inactive)
- GI50 (Malme-3M): > 100 µM (inactive)
- GI50 (NCI-H226): > 100 µM (inactive)
- GI50 (NCI-H23): 35.2 µM (inactive)
- GI50 (NCI-H460): > 100 µM (inactive)
- GI50 (NCI-H522): > 100 µM (inactive)
- GI50 (NCI/ADR-RES): 66.5 µM (inactive)
- GI50 (OVCAR-3): > 100 µM (inactive)
- GI50 (OVCAR-4): > 100 µM (inactive)
- GI50 (OVCAR-5): > 100 µM (inactive)
- GI50 (OVCAR-8): > 100 µM (inactive)
- GI50 (PC-3): > 100 µM (inactive)
- GI50 (RPMI-8226): > 100 µM (inactive)
- GI50 (RXF 393): > 100 µM (inactive)
- GI50 (SF-268): > 100 µM (inactive)
- GI50 (SF-295): > 100 µM (inactive)
- GI50 (SF-539): > 100 µM (inactive)
- GI50 (SK-MEL-28): > 100 µM (inactive)
- GI50 (SK-MEL-2): > 100 µM (inactive)
- GI50 (SK-MEL-5): 31.8 µM (inactive)
- GI50 (SK-OV-3): > 100 µM (inactive)
- GI50 (SN12C): > 100 µM (inactive)
- GI50 (SNB-19): > 100 µM (inactive)
- GI50 (SNB-75): 59 µM (inactive)
- GI50 (SR): 51.8 µM (inactive)
- GI50 (SW-620): > 100 µM (inactive)
- GI50 (T47D): > 100 µM (inactive)
- GI50 (TK-10): > 100 µM (inactive)
- GI50 (U-251): > 100 µM (inactive)
- GI50 (UACC-257): 46.5 µM (inactive)
- GI50 (UACC-62): 76 µM (inactive)

SMILES: COc1ccc(/C=N/n2c(Cc3ccccc3)n[nH]c2=O)c(OC)c1
- GI50 (786-0): 31 µM (inactive)
- GI50 (A498): 44.4 µM (inactive)
- GI50 (A549): > 39.5 µM (inactive)
- GI50 (ACHN): 30.4 µM (inactive)
- GI50 (BT-549): 8.2 µM (inactive)
- GI50 (CAKI-1): > 51.4 µM (inactive)
- GI50 (CCRF-CEM): > 100 µM (inactive)
- GI50 (COLO 205): > 31.6 µM (inactive)
- GI50 (DU-145): > 100 µM (inactive)
- GI50 (EKVX): > 57.9 µM (inactive)
- GI50 (HCC 2998): > 77.4 µM (inactive)
- GI50 (HCT-116): 26.2 µM (inactive)
- GI50 (HCT-15): > 100 µM
- GI50 (HOP-62): 20.9 µM (inactive)
- GI50 (HOP-92): 24.2 µM (inactive)
- GI50 (HT-29): 19.5 µM (inactive)
- GI50 (Hs-578T): 11.2 µM (inactive)
- GI50 (IGROV-1): 28.8 µM (inactive)
- GI50 (K562): > 100 µM (inactive)
- GI50 (KM12): > 100 µM (inactive)
- GI50 (LOX IMVI): 27.5 µM (inactive)
- GI50 (M14): 51.8 µM (inactive)
- GI50 (MCF7): > 100 µM (inactive)
- GI50 (MDA-MB-231): 36.7 µM (inactive)
- GI50 (MDA-MB-435): > 100 µM (inactive)
- GI50 (MDA-N): > 100 µM (inactive)
- GI50 (MOLT-4): > 100 µM (inactive)
- GI50 (Malme-3M): 59.2 µM (inactive)
- GI50 (NCI-H226): 33.8 µM (inactive)
- GI50 (NCI-H23): 29.4 µM (inactive)
- GI50 (NCI-H460): > 50.7 µM (inactive)
- GI50 (NCI-H522): > 52 µM (inactive)
- GI50 (NCI/ADR-RES): 21.5 µM (inactive)
- GI50 (OVCAR-3): > 63.5 µM (inactive)
- GI50 (OVCAR-4): > 58.6 µM (inactive)
- GI50 (OVCAR-5): 49.1 µM (inactive)
- GI50 (OVCAR-8): 24.7 µM (inactive)
- GI50 (PC-3): > 100 µM (inactive)
- GI50 (RPMI-8226): > 100 µM (inactive)
- GI50 (RXF 393): 9.98 µM (inactive)
- GI50 (SF-268): 15.5 µM (inactive)
- GI50 (SF-295): 15.3 µM (inactive)
- GI50 (SF-539): 28.8 µM (inactive)
- GI50 (SK-MEL-28): > 100 µM (inactive)
- GI50 (SK-MEL-2): > 59.8 µM (inactive)
- GI50 (SK-MEL-5): > 71.4 µM (inactive)
- GI50 (SK-OV-3): 29.2 µM (inactive)
- GI50 (SN12C): > 100 µM (inactive)
- GI50 (SNB-19): 28.2 µM (inactive)
- GI50 (SNB-75): 9.71 µM (inactive)
- GI50 (SR): > 100 µM (inactive)
- GI50 (SW-620): > 85.9 µM (inactive)
- GI50 (T47D): > 100 µM (inactive)
- GI50 (TK-10): 27.3 µM (inactive)
- GI50 (U-251): 22 µM (inactive)
- GI50 (UACC-257): > 100 µM (inactive)
- GI50 (UACC-62): > 88.3 µM (inactive)
- GI50 (UO-31): > 42.8 µM (inactive)
